Assay results: patent publication US20140323354A1, “Chemically Modified Ligase Cofactors, Donors and Acceptors” (priority 2010, published 2014)

Molecular target: T1, T4 DNA ligase (Enterobacteria phage T4, UniProt P00970)
T1 construct: purchased New England Biolabs
Assay: Ligation yield with modified ATP cofactors on matched and mismatched templates, PAGE analysis
Assay type: biochemical, bacteriophage T4
Conditions: for discrimination of modified cofactor between matched and mismatched templates: matched T-A versus mismatched C-A, G-A, A-A, panel of ten modified cofactors at 1 mM
Procedure: Each 20 μL reaction was performed in buffer containing 50 mM Tris-HCl (pH 7.5), 10 mM MgCl2, 10 mM dithiothreitol, 25 μg/ml bovine serum albumin. 1 mM ATP was added to the buffer separately. The donor (LP3′T w/PBS), acceptor (Com3F w/PBS), and template (Alg) were at 0.1 μM equimolar amounts. The acceptor, donor, and template were denatured at 95° C. for 3 minutes and annealed at 4° C. for 3 minutes. Ligation was initiated by adding 400 units of T4 ligase (New England Biolabs) to each reaction. Ligation proceeded at 16° C. for 20 minutes. Ligation was terminated by heating the reaction to 65° C. for 10 minutes and adding an equal volume of 2×TBE-Urea buffer (Invitrogen). Samples were run on 6% TBE-Urea Novex gels (Invitrogen). The gels were stained with SYBR Gold nucleic acid stain (Invitrogen) according to manufacturer's protocol.
ATP analogs were compared to the corresponding natural ATP cofactor for their ability to join matched and mismatched templates (FIG. 4). ATP analogs were evaluated for relative ligation yield in the presence of matched template (LP3′T Acceptor w/PBS and Alg template; T-A matched base pair at the 3′-end of the acceptor strand) to the relative yield when a mismatched template was used (LP3′C Acceptor w/PBS and Alg template; C-A mismatched base pair on 3′-end of the acceptor strand). Reactions were performed as described for Example 1, with a cofactor of interest included in the reaction at 1 mM concentration. Natural ATP substrate was compared to the following modified cofactors: 7-deaza-ATP (7-deaza-adenosine-5′-triphosphate), N1-methyl-ATP (N1-methyl-adenosine-5′-triphosphate), 2-amino-ATP (2-amino-adenosine-5′-triphosphate), 2′-amino-2′-deoxy-ATP (2′-amino-2′-deoxyadenosine-5′-triphosphate), 3′-amino-2′,3′-dideoxy-ATP (3′-amino-2′,3′-dideoxy-adenosine-5′-triphosphate) (FIG. 4). All modified cofactors supported ligation with similar efficiency to natural ATP when a matched template was employed.
One method of determining the ligation yield of a ligation component of interest (e.g., modified ligase cofactors, modified donors or modified acceptors) is by assigning a specificity number. Specificity numbers can be determined for example, by dividing the ligation yield of a matched case by the ligation yield of a mismatched case where a single base pair differs relative to the matched case. […] The yields are then normalized to the template readings in the same reaction, with subsequent normalization to the ligation yield for a reaction including the natural (ATP) cofactor, where ATP has a normalized yield of 1.0. For example, in the case of 2′-deoxy-ATP (2′-deoxy-adenosine-5′-triphosphate; FIG. 4), the ligation yield in the matched case (LP3′T Acceptor w/PBS and Alg template; T-A matched base pair on 3′ end of the acceptor strand) was 1.34. In the mismatched case (LP3′C Acceptor w/PBS and Alg template; C-A mismatched base pair on 3′ end of the acceptor strand) the ligation yield was 0.18. Accordingly, the specificity number assigned to 2′-deoxy-ATP in a C-A mismatch case was 1.34÷0.18 or 7.44. A value greater than one is indicative of improved ligation specificity. A value less than one is indicative of reduced ligation specificity.
ATP analogs were compared to the natural ATP cofactor for their ability to join matched and mismatched templates for relative ligation yield in the presence of matched template (LP3′T Acceptor w/PBS and Alg template; T-A matched base pair on 3′-end of the acceptor strand) relative to the yield of templates which contained a mismatched base pair on 3′-end of the acceptor: 1) LP3′C Acceptor w/PBS and Alg template; C-A mismatch, 2) LP3′G Acceptor w/PBS and Alg template; G-A mismatch, and 3) LP3′A Acceptor w/PBS and Alg template; A-A mismatch (FIG. 5). Reactions were performed as described for Example 1, with a cofactor of interest included in the reaction at 1 mM concentration. […]

T1 sequence (P00970 whole entry): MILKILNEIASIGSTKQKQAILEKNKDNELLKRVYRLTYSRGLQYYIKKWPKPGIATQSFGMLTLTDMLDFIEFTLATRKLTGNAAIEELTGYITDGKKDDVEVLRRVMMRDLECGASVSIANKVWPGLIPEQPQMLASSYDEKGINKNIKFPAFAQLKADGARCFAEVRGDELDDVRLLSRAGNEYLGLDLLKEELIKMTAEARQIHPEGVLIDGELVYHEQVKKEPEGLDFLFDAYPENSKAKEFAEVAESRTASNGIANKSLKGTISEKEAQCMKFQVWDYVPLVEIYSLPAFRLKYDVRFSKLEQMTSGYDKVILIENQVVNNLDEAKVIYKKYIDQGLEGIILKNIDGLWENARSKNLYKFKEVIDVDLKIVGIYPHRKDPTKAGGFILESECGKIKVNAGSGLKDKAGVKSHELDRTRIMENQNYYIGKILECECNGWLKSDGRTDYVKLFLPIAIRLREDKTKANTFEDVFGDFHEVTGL

Row | Compound | ligation yield in the mismatched case (LP3′C Acceptor w/PBS and Alg template, C-A mismatched base pair on 3′ end of acceptor, cofactor 1 mM, normalized to ATP = 1.0) | ligation yield in the matched case (LP3′T Acceptor w/PBS and Alg template, T-A matched base pair on 3′ end of acceptor, cofactor 1 mM, normalized to ATP = 1.0) | specificity number (matched (T-A) yield divided by mismatched (C-A) yield, greater than one = improved ligation specificity) | discrimination of modified cofactor between matched and mismatched templates
1 | Nc1ncnc2c1ncn2[C@H]1C[C@H](O)[C@@H](COP(=O)(O)OP(=O)(O)OP(=O)(O)O)O1 [2′-deoxy-ATP, 2′-deoxy-adenosine-5′-triphosphate] | 0.18 | 1.34 | 7.44 | lead modifications of interest
2 | Nc1ncnc2c1ncn2[C@H]1C[C@H](N)[C@@H](COP(=O)(O)OP(=O)(O)OP(=O)(O)O)O1 [3′-amino-2′,3′-dideoxy-adenosine-5′-triphosphate] |  |  |  | lead modifications of interest
3 | Nc1ncnc2c1ncn2[C@@H]1O[C@H](COP(O)(=S)OP(=O)(O)OP(=O)(O)O)[C@@H](O)[C@H]1O (stereo partly drawn) [5′-alpha-thio-adenosine-5′-triphosphate] |  |  |  | lead modifications of interest
